Measurements from the NIST ThermoML archive (doi:10.1021/je700215z).

Experiments:
[1] = xn = mol fraction of the nth substance listed

CCCCO [butan-1-ol]
Settings | surface tension liquid-gas [mN/m]
283.15 K | 25.55
288.15 K | 25.12
293.15 K | 24.78
298.15 K | 24.25
303.15 K | 23.95
308.15 K | 23.55
313.15 K | 23.15

CCC(C)O (centres undefined) [butan-2-ol]
Settings | surface tension liquid-gas [mN/m]
283.15 K | 24.37
288.15 K | 23.95
293.15 K | 23.56
298.15 K | 23.08
303.15 K | 22.75
308.15 K | 22.39
313.15 K | 21.97

CCC(C)O (centres undefined) [butan-2-ol] + CCCCCC
surface tension liquid-gas [mN/m], [1]
Settings | 283.15 K | 288.15 K | 293.15 K | 298.15 K | 303.15 K | 308.15 K | 313.15 K
x1 = 0.0493 | 19.75 | 19.16 | 18.62 | 18.11 | 17.52 | 16.69 | 16.33
x1 = 0.1057 | 19.84 | 19.24 | 18.7 | 18.14 | 17.53 | 16.66 | 16.26
x1 = 0.2083 | 20 | 19.36 | 18.8 | 18.21 | 17.62 | 16.81 | 16.41
x1 = 0.3004 | 20.18 | 19.52 | 18.95 | 18.37 | 17.82 | 17.08 | 16.7
x1 = 0.4002 | 20.43 | 19.77 | 19.21 | 18.67 | 18.16 | 17.5 | 17.13
x1 = 0.4962 | 20.72 | 20.13 | 19.6 | 19.09 | 18.6 | 18.01 | 17.62
x1 = 0.5948 | 21.1 | 20.57 | 20.13 | 19.61 | 19.18 | 18.6 | 18.22
x1 = 0.6968 | 21.64 | 21.2 | 20.76 | 20.26 | 19.84 | 19.33 | 18.92
x1 = 0.8018 | 22.35 | 21.9 | 21.52 | 21.04 | 20.67 | 20.18 | 19.74
x1 = 0.8964 | 23.18 | 22.74 | 22.34 | 21.88 | 21.52 | 21.12 | 20.73
x1 = 0.9492 | 23.73 | 23.31 | 22.9 | 22.43 | 22.11 | 21.73 | 21.33

CCO [ethanol]
Settings | surface tension liquid-gas [mN/m]
283.15 K | 23.12
288.15 K | 22.75
293.15 K | 22.28
298.15 K | 21.86
303.15 K | 21.49
308.15 K | 21.15
313.15 K | 20.66

CCCCCC [hexane]
Settings | surface tension liquid-gas [mN/m]
283.15 K | 19.63
288.15 K | 19.04
293.15 K | 18.52
298.15 K | 18.06
303.15 K | 17.53
308.15 K | 16.74
313.15 K | 16.47

CCCCCC [hexane] + CCCCO
surface tension liquid-gas [mN/m], [1]
Settings | 283.15 K | 288.15 K | 293.15 K | 298.15 K | 303.15 K | 308.15 K | 313.15 K
x2 = 0.0519 | 19.78 | 19.15 | 18.6 | 18.11 | 17.55 | 16.75 | 16.4
x2 = 0.0875 | 19.87 | 19.26 | 18.7 | 18.2 | 17.61 | 16.8 | 16.43
x2 = 0.1959 | 20.17 | 19.58 | 19.03 | 18.52 | 17.92 | 17.13 | 16.74
x2 = 0.2999 | 20.41 | 19.88 | 19.35 | 18.84 | 18.28 | 17.52 | 17.12
x2 = 0.399 | 20.69 | 20.14 | 19.65 | 19.1 | 18.62 | 17.91 | 17.48
x2 = 0.4914 | 20.93 | 20.4 | 19.96 | 19.43 | 18.92 | 18.29 | 17.83
x2 = 0.5974 | 21.44 | 20.9 | 20.44 | 19.91 | 19.43 | 18.82 | 18.39
x2 = 0.7044 | 22.14 | 21.63 | 21.18 | 20.6 | 20.17 | 19.59 | 19.12
x2 = 0.8027 | 23.09 | 22.54 | 22.13 | 21.54 | 21.13 | 20.6 | 20.15
x2 = 0.9088 | 24.37 | 23.85 | 23.44 | 22.87 | 22.51 | 22.06 | 21.6
x2 = 0.953 | 24.93 | 24.47 | 24.07 | 23.53 | 23.18 | 22.76 | 22.37

CCCCCC [hexane] + CCO
surface tension liquid-gas [mN/m], [1]
Settings | 283.15 K | 288.15 K | 293.15 K | 298.15 K | 303.15 K | 308.15 K | 313.15 K
x2 = 0.0855 | 19.7 | 19.11 | 18.57 | 18.03 | 17.49 | 16.67 | 16.3
x2 = 0.1006 | 19.74 | 19.11 | 18.56 | 18.03 | 17.48 | 16.66 | 16.29
x2 = 0.2107 | 19.73 | 19.1 | 18.55 | 18.01 | 17.42 | 16.64 | 16.2
x2 = 0.2928 | 19.77 | 19.18 | 18.57 | 18.03 | 17.46 | 16.68 | 16.24
x2 = 0.4128 | 19.9 | 19.29 | 18.71 | 18.15 | 17.57 | 16.85 | 16.38
x2 = 0.5071 | 20.08 | 19.46 | 18.84 | 18.29 | 17.72 | 17.04 | 16.56
x2 = 0.5909 | 20.26 | 19.67 | 19.02 | 18.45 | 17.93 | 17.26 | 16.74
x2 = 0.7036 | 20.61 | 20.02 | 19.36 | 18.8 | 18.26 | 17.7 | 17.21
x2 = 0.8032 | 21.05 | 20.46 | 19.88 | 19.32 | 18.82 | 18.31 | 17.85
x2 = 0.9021 | 21.78 | 21.28 | 20.73 | 20.22 | 19.81 | 19.38 | 18.91
x2 = 0.932 | 22.11 | 21.64 | 21.11 | 20.64 | 20.22 | 19.82 | 19.36
